# Measured values as given in patent US20140275049A1, “SUBSTITUTED PYRAZOLE ANALOGS As RAR ANTAGONISTS” (Eli Lilly and Company, priority 2011, published 2014).
# Columns and labels:
# RARγ = molecular target: T1, RARγ (Homo sapiens, UniProt P13631); assay: RARγ binding assay (SPA, 3H-TTNPB competition); details: RARγ/RXRα heterodimer
# T1 construct: made in house; host or cells: baculovirus expression system
# T1 sequence (P13631 1-454): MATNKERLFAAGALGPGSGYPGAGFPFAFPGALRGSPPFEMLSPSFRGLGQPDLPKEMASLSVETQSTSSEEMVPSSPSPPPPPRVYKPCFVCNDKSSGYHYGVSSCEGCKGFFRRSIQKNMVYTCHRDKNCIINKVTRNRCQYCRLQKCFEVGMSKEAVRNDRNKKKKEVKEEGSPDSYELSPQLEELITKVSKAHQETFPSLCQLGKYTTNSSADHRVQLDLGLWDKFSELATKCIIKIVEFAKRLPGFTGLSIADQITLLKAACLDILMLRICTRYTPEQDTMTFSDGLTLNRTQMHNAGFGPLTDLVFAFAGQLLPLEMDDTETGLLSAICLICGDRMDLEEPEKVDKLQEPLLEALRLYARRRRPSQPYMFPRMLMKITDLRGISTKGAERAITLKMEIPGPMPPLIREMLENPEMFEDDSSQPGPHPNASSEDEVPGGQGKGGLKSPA
# T1 sequence (P19793 1-462 partner): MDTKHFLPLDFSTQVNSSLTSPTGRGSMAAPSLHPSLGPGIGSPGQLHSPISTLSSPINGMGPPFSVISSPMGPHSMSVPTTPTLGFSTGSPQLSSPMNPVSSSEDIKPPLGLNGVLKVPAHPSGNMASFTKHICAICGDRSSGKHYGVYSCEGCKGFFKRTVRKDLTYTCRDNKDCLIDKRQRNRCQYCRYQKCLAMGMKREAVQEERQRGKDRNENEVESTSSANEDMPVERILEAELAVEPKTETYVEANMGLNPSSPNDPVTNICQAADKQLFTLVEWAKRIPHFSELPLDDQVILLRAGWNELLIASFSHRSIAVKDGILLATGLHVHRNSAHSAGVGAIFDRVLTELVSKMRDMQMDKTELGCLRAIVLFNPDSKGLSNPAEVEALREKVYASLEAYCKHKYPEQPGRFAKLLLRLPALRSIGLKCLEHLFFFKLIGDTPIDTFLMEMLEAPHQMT
# Text: Compounds can be evaluated for binding to RARα, β and γ by measuring their ability to competitively bind to the RAR receptors when dimerized with the binding partner RXRα. Competitive binding assays may be carried out by Scintillation Proximity Assay (SPA) technology using the RARα, β or γ heterodimer (with RXRα as a partner with all the RARs) receptors prepared in a baculovirus expression system. Use the biotinylated oligonucleotide: 5′-[…]-3′ for binding of receptor to yttrium silicate streptavidin-coated SPA beads. Per well, preincubate […] with 82.7 μg SPA beads in a binding buffer containing 10 mM HEPES pH 7.8, 80 mM KCl, 0.5 mM MgCl2, 1 mM DTT, 0.5% CHAPS and 16.6 μg bovine serum albumin for 30 min at room temperature. Then spin the mixture at 2,000 rpm for 3 min to pelletize the beads-oligo mix. Remove the supernatant and resuspend the beads-oligo pellet in the same binding buffer as above, but which in addition now also contain 14% glycerol, 5 μg of sheared salmon sperm DNA, 0.5 μg of RARα, 1.0 μg of RARβ, or 0.25 μg of RARγ receptor, respectively. Carry out the binding assays in the presence of ˜11.3 μCi of ^3H 4-[(E)-2-(5,6,7,8-tetrahydro-5,5,8,8-tetramethyl-2-naphthalenyl)-1-propenyl]benzoic acid (TTNPB), and multiple concentrations of test compound ranging from (5 nM to 10 μM). Non-specific binding may be determined in the presence of 1 μM unlabeled TTNPB. Use the data to calculate an IC50 for compounds after fitting the dose-response curves to a 4-parameter logistic fit. Use the Cheng-Prusoff equation to convert IC50 (nM) values for compounds to Ki, and the Kd may be determined by saturation binding.
# [1] = molecular target: T2, Gal4 (DBD) RARγ (LBD) hybrid receptor (Homo sapiens, UniProt P13631); assay: Gal4 reporter assay to determine RAR receptor antagonist activity; type: cell-based; details: HEK 293 cells, antagonist mode against EC80 ATRA, 24 hours, luciferase
# T2 construct: Gal4 (DBD) RARγ (LBD), or the Gal4 (DBD) RARβ (LBD) hybrid receptor; expressed in transfected cells; host or cells: HEK 293
# T2 sequence (P13631 185-419 limits assumed): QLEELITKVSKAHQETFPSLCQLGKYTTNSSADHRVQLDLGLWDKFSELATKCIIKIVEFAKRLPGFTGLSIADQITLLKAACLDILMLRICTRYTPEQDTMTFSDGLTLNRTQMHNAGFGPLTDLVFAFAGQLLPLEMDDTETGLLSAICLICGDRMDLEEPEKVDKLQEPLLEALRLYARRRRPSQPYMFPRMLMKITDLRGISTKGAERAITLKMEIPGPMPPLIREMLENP
# Text: For cell-based assays, human embryonic kidney HEK 293 cells are transfected with receptor and reporter gene plasmids using Fugene. The reporter plasmid containing five Gal4 binding sites and a major late promoter of adenovirus upstream of the luciferase reporter cDNA is transfected together with a plasmid constitutively expressing the Gal4 DNA binding domain (DBD) and the RARα ligand binding domain (LBD), Gal4 (DBD) RARγ (LBD), or the Gal4 (DBD) RARβ (LBD) hybrid receptor using a SV40 promoter. Cells are transfected in poly-d-lysine coated T175 cm flasks in DMEM media with 5% charcoal-stripped Fetal Bovine Serum (FBS). After an overnight incubation, transfected cells are trypsinized, plated in opaque 96 well dishes in DMEM media containing 5% charcoal-stripped FBS, incubated for 4 h, and then exposed to 0.17 nM to 10 μM of test compound in half log dilutions. To determine the antagonist activity of the test compound, EC80 concentrations of agonist for each receptor is also added to the media (15 nM all-trans retinoic acid, ATRA, for RARα and RARγ, 10 nM of ATRA for RARβ). After 24 hours of incubation with compounds, cells are lysed and luciferase activity is determined. Data are fitted to a four parameter-fit logistics to determine IC50 values. The maximum % inhibition is determined versus the cellular response to 0.25% DMSO in the absence of ATRA.
Ki (RARγ) [nM],Kb [1] [nM],Compound
1.69,23 ± 5.36,"CN1CCN(C(=O)c2ccc(-n3nc(-c4ccc(C(=O)O)cc4)cc3-c3cc(C(C)(C)C)cc(C(C)(C)C)c3)cc2)CC1 [Example 1, 4-[5-(3,5-Di-tert-butylphenyl)-1-[4-(4-methylpiperazine-1-carbonyl)phenyl]pyrazol-3-yl]benzoic Acid]"
1.58,28.7,"CC(C)(C)c1cc(-c2cc(-c3ccc(C(=O)O)cc3)nn2-c2ccc(C(=O)N3CCOCC3)cc2)cc(C(C)(C)C)n1 [Example 8, 4-[5-(2,6-Di-tert-butyl-4-pyridyl)-1-[4-(morpholine-4-carbonyl)phenyl]pyrazol-3-yl]benzoic acid]"
3.06,30.2,"CC(C)Sc1cc(-c2cc(-c3ccc(C(=O)O)cc3)nn2-c2ccc(C(=O)N(C)C)cc2)cc(C(C)(C)C)c1 [Example 12, 4-[5-(3-tert-Butyl-5-isopropylsulfanyl-phenyl)-1-[4-(dimethylcarbamoyl)phenyl]pyrazol-3-yl]benzoic Acid]"
2.76,34.6,"CC(C)(C)c1cc(-c2cc(-c3ccc(C(=O)O)cc3)nn2-c2ccc(S(C)(=O)=O)cc2)cc(C(C)(C)C)c1 [Example 19, 4-[5-(3,5-Di-tert-butylphenyl)-1-(4-methylsulfonylphenyl)pyrazol-3-yl]benzoic Acid]"
